According to US20090196924A1 (priority 2008, published 2009):
Converted amounts (≈) assume the structure as drawn.

How the values were obtained:
[1] = concomitant valproate (reduces hepatic clearance of lamotrigine), for a given dose; cited from earlier work
[2] = Solubility of lamotrigine; format: physicochemical; conditions: all media; slightly pH-dependent, highest in 0.1N HCl
[3] = 25° C., cited from earlier work

solubility of lamotrigine [2]: moderately high in all media
SMILES: Nc1nnc(-c2cccc(Cl)c2Cl)c(N)n1 [Lamotrigine, 3,5-diamino-6-(2,3-dichlorophenyl)-as-triazine]
increase of plasma concentrations of the drug [1]: approximately two-fold
solubility in 0.1 M HCl ([3]; 0.1 M HCl): 4100 µg/mL (≈ 16 mM)
solubility in water ([3]; water): 170 µg/mL (≈ 0.664 mM)
